Measured values from US10759787B2, “Benzofuran derivative, preparation method thereof and use thereof in medicine” (Jiangsu Hengrui Medicine Co., Ltd., priority 2015, dated 2020).

Assays:
Pfeiffer cells = assay: In vitro anti-tumor cell growth assay (CellTiter-Glo), Pfeiffer; format: cell-based; conditions: Homo sapiens, 120 h; Pfeiffer cells (A677G mutant), 5 days; read-out: IC50 for inhibiting the growth activity of tumor cells (Pfeiffer) in vitro
Description: Test Example 2. Assay for Determining In Vitro Anti-Tumor Cell Growth Activity of the Example Compounds of the Present Invention
This method was used to determinate the inhibitory effect of the compounds of the present invention on the growth activity of tumor cells (Pfeiffer or WSU-DLCL2) in vitro. Pfeiffer cells carry A677G mutant, and WSU-DLCL2 cells carry Y641F mutant.
The lymphoma suspension cell line (Pfeiffer or WSU-DLCL2) was cultured in a RPMI-1640 medium containing 10% inactivated Fetal Bovine Serum, 100 U/mL penicillin, and 100 μg/mL streptomycin, and incubated in an incubator with 5% carbon dioxide at 37° C. under a saturated humidity condition, and passaged every 3-4 days.
A cell sudpension was prepared with a fresh cell medium, added to a 96-well cell culture plate at 8000 cells/well (Pfeiffer) or 2000 cells/well (WSU-DLCL2), and incubated in 5% carbon dioxide at 37° C. incubator overnight. On the day of the experiment, the EZH2 test compounds (final concentration: 20000, 2000, 200, 20, 2, 0.2 nM) were added into the experimental wells for 3 parallel wells per group. A control well with the medium alone but without cells was set up to obtain the background luminescent value. The cell culture plate was incubated in an incubator with 5% carbon dioxide at 37° C. for 5 days.
After the compounds were applied to the cells for 5 days, the cell culture plate was placed at room temperature for 30 minutes, then a CellTiter-Glo reagent equal to the volume of cell culture medium was added to each well. The contents were mixed on a shaker for 10 minutes, and the […] signal values were recorded. The cell growth inhibition rate was calculated, and the formula was: cell growth inhibiton rate=[(negative control control−experimental group)/(negative control group−background luminescent value)]×100%. The IC50 values (half inhibition rate IC50, i.e., a drug concentration that is required for 50% cell growth inhibition rate) were calculated by software from the cell growth inhibiton rate and the corresponding concentration.

EZH2-A677G = EZH2-A677G (Homo sapiens (Human), UniProt Q15910, A677G); assay: EZH2-A677G mutant enzyme activity assay (HTRF); format: biochemical; conditions: read-out: IC50 for inhibiting the activity of enzyme EZH2-A677G
Description: Histone H3 biotin labeling and S-adenosyl methionine were respectively diluted to 50 nM and 50 μM with a kinase buffer, then added to a 384-well plate at 4 μl/well. The test compound was diluted with a kinase buffer (it was diluted from the highest concentration 30 μM in 10 fold concentration gradient to 7 concentration points), then added to the 384-well microtiter plate at 4 μl/well. The plate was incubated at room temperature for 2 hours. Histone H3K27 Me3 monoclonal antibody and Streptavidin-XL665 were diluted to 30 nM and 500 nM by HTRF detection buffer, then added to the 384-well microplate at 10 µl/well and incubated for 1 hour. A well without an EZH2 enzyme and a compound was used as a negative control, and a well with an EZH2 enzyme but without a compound was used as a positive control. […] The compound logarithm concentration vs the inhibition percentage relative to the positive control well was plotted using GraphPad Prism, then the IC50 values were calculated.

EZH2-A677G, sequence (Q15910 whole entry A677G): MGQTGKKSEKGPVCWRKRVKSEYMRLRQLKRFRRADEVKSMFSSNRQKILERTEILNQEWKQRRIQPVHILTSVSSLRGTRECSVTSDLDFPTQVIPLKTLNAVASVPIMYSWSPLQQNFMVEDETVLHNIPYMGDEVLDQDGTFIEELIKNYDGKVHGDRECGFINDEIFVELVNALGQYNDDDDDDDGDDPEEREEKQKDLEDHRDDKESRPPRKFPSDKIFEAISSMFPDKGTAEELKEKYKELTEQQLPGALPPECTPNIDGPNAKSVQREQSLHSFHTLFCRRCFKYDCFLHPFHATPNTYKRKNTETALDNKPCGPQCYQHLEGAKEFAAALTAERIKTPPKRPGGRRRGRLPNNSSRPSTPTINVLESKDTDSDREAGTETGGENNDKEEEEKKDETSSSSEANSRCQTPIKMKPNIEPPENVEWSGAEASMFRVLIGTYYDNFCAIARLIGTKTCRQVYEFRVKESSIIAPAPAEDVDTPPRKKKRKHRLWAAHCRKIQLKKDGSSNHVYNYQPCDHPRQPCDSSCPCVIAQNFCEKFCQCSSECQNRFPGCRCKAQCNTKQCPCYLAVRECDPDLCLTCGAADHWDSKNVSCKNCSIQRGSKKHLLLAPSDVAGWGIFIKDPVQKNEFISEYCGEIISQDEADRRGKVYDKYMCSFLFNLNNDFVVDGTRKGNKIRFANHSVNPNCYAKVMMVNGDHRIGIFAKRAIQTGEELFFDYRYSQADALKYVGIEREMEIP
EZH2-A677G, sequence (O75530 whole entry partner): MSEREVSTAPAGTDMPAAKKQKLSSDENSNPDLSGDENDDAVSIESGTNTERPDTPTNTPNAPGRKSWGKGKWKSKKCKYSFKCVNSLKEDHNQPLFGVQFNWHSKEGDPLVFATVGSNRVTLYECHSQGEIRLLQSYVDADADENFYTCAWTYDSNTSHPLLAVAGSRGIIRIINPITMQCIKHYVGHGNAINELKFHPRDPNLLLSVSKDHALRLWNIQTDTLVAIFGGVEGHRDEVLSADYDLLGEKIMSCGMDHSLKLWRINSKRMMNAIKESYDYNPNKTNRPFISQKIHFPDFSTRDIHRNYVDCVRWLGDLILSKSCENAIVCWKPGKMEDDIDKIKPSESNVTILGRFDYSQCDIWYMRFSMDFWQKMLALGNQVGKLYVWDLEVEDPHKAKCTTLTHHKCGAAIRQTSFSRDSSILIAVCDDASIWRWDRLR
EZH2-A677G, sequence (Q15022 whole entry partner): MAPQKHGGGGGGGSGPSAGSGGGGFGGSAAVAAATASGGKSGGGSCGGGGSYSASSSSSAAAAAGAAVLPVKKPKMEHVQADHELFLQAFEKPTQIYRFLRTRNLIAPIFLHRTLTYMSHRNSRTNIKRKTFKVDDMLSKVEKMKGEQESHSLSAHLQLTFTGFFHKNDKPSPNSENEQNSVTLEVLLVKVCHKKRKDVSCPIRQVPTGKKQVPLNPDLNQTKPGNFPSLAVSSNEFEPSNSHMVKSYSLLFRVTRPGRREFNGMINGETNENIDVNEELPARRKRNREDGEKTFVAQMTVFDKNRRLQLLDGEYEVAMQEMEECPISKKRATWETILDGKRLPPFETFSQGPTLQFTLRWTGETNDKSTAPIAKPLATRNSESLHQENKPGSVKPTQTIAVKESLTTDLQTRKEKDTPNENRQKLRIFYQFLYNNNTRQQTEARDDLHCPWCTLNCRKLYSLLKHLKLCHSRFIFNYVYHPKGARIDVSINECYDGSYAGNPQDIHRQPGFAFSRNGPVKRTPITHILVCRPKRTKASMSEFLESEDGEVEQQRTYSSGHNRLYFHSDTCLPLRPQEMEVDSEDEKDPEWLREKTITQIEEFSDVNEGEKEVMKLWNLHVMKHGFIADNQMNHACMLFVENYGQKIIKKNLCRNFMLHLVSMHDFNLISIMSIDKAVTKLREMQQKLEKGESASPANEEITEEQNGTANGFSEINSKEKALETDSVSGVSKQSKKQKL
EZH2-A677G, sequence (Q09028 whole entry partner): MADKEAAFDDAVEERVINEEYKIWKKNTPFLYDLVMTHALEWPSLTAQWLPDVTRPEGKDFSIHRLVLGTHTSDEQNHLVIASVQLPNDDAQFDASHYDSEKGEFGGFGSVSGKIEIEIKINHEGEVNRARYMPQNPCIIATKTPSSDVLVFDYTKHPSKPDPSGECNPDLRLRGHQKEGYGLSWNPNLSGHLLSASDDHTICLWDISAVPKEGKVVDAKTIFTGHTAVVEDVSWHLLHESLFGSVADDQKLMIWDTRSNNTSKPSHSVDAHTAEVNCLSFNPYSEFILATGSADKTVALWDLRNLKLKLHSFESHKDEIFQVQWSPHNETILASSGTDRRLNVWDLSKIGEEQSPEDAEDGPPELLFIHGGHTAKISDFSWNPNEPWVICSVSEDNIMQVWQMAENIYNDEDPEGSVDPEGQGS
EZH2-A677G, sequence (Q6ZN18 whole entry partner): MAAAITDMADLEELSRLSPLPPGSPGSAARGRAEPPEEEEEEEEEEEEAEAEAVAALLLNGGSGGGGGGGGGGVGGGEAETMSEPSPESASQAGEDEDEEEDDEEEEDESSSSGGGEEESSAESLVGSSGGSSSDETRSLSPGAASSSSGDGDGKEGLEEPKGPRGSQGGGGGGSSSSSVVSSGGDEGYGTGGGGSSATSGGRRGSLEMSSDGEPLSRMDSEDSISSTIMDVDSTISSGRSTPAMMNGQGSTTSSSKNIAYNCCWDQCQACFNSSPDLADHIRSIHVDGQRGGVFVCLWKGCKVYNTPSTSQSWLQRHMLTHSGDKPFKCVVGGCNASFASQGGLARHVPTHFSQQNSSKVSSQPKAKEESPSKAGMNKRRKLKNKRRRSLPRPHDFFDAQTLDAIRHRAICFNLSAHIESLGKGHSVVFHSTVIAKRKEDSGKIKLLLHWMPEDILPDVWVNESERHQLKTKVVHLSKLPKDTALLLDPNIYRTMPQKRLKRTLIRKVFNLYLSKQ

Row | SMILES | IC50 (Pfeiffer cells) [nM] | IC50 (EZH2-A677G) [nM]
1 | CCN(c1cc2oc(CN3CCCCC3)cc2c(C(=O)NCc2c(OC)cc(C)[nH]c2=O)c1C)C1CCOCC1 [Example 4, 6-(Ethyl(tetrahydro-2H-pyran-4-yl)amino)-N-((4-methoxy-6-methyl-2-oxo-1,2-dihydropyridin-3-yl)methyl)-5-methyl-2-(piperidin-1-ylmethyl)benzofuran-4-carboxamide] | 19 | 14
2 | CCc1c(N(CC)C2CCOCC2)cc2oc(CN3CCN(C(C)C)CC3)cc2c1C(=O)NCc1c(OC)cc(C)[nH]c1=O [Example 5, 5-Ethyl-6-(ethyl(tetrahydro-2H-pyran-4-yl)amino)-2-((4-isopropylpiperazin-1-yl)methyl)-N-((4-methoxy-6-methyl-2-oxo-1,2-dihydropyridin-3-yl)methyl)benzofuran-4-carboxamide] | 19 | 1.2
3 | CCc1c(N(CC)C2CCOCC2)cc2oc(CN3CCOCC3)cc2c1C(=O)NCc1c(OC)cc(C)[nH]c1=O [Example 6, 5-Ethyl-6-(ethyl(tetrahydro-2H-pyran-4-yl)amino)-N-((4-methoxy-6-methyl-2-oxo-1,2-dihydropyridin-3-yl)methyl)-2-(morpholinomethyl)benzofuran-4-carboxamide] | 3 | 7.8
4 | CCc1c(N(CC)C2CCOCC2)cc2oc(CN3CCC(F)(F)CC3)cc2c1C(=O)NCc1c(OC)cc(C)[nH]c1=O [Example 7, 2-((4,4-Difluoropiperidin-1-yl)methyl)-5-ethyl-6-(ethyl(tetrahydro-2H-pyran-4-yl)amino)-N-((4-methoxy-6-methyl-2-oxo-1,2-dihydropyridin-3-yl)methyl)benzofuran-4-carboxamide] | 11 | 3.5
5 | CCc1c(N(CC)C2CCOCC2)cc2oc(CN3CCCC3)cc2c1C(=O)NCc1c(OC)cc(C)[nH]c1=O [Example 8, 5-Ethyl-6-(ethyl(tetrahydro-2H-pyran-4-yl)amino)-N-((4-methoxy-6-methyl-2-oxo-1,2-dihydropyridin-3-yl)methyl)-2-(pyrrolidin-1-ylmethyl)benzofuran-4-carboxamide] | 12 | 6.2
6 | CCc1c(N(CC)C2CCOCC2)cc2oc(C3CCN(C(C)C)CC3)cc2c1C(=O)NCc1c(OC)cc(C)[nH]c1=O [Example 10, 5-Ethyl-6-(ethyl(tetrahydro-2H-pyran-4-yl)amino)-2-(1-isopropylpiperidin-4-yl)-N-((4-methoxy-6-methyl-2-oxo-1,2-dihydropyridin-3-yl)methyl)benzofuran-4-carboxamide] | 5 | 1.7
7 | CCc1c(N(CC)C2CCOCC2)cc2oc(CN3CCN(CC(C)(C)O)CC3)cc2c1C(=O)NCc1c(C)cc(C)[nH]c1=O [Example 11, N-((4,6-Dimethyl-2-oxo-1,2-dihydropyridin-3-yl)methyl)-5-ethyl-6-(ethyl(tetrahydro-2H-pyran-4-yl)amino)-2-((4-(2-hydroxy-2-methylpropyl)piperazin-1-yl)methyl)benzofuran-4-carboxamide] | 22 | 5.6
8 | CCc1c(N(CC)C2CCOCC2)cc2oc(CN3CCN(C)CC3)cc2c1C(=O)NCc1c(OC)cc(C)[nH]c1=O [Example 12, 5-Ethyl-6-(ethyl(tetrahydro-2H-pyran-4-yl)amino)-N-((4-methoxy-6-methyl-2-oxo-1,2-dihydropyridin-3-yl)methyl)-2-((4-methylpiperazin-1-yl)methyl)benzofuran-4-carboxamide] | 22 | 10
9 | CCc1c(N(CC)C2CCOCC2)cc2oc(CN(C)C)cc2c1C(=O)NCc1c(OC)cc(C)[nH]c1=O [Example 13, 2-((Dimethylamino)methyl)-5-ethyl-6-(ethyl(tetrahydro-2H-pyran-4-yl)amino)-N-((4-methoxy-6-methyl-2-oxo-1,2-dihydropyridin-3-yl)methyl)benzofuran-4-carboxamide] | 9 | 2.9
10 | CCc1c(N(CC)C2CCOCC2)cc2oc(C3CCCC3)cc2c1C(=O)NCc1c(C)cc(C)[nH]c1=O [Example 14, 2-Cyclopentyl-N-((4,6-dimethyl-2-oxo-1,2-dihydropyridin-3-yl)methyl)-5-ethyl-6-(ethyl(tetrahydro-2H-pyran-4-yl)amino)benzofuran-4-carboxamide] | – | 9.6
11 | CCN(c1cc2oc(C3CCN(C)CC3)cc2c(C(=O)NCc2c(C)cc(C)[nH]c2=O)c1C)C1CCOCC1 [Example 15, N-((4,6-Dimethyl-2-oxo-1,2-dihydropyridin-3-yl)methyl)-6-(ethyl(tetrahydro-2H-pyran-4-yl)amino)-5-methyl-2-(1-methylpiperidin-4-yl)benzofuran-4-carboxamide] | 13 | 16
12 | CCN(c1cc2oc(C3=CCN(C)CC3)cc2c(C(=O)NCc2c(C)cc(C)[nH]c2=O)c1C)C1CCOCC1 [Example 16, N-((4,6-Dimethyl-2-oxo-1,2-dihydropyridin-3-yl)methyl)-6-(ethyl(tetrahydro-2H-pyran-4-yl)amino)-5-methyl-2-(1-methyl-1,2,3,6-tetrahydropyridin-4-yl)benzofuran-4-carboxamide] | 18 | 31
13 | CCc1c(N(CC)C2CCOCC2)cc2oc(C3CCN(C)CC3)cc2c1C(=O)NCc1c(OC)cc(C)[nH]c1=O [Example 17, 5-Ethyl-6-(ethyl(tetrahydro-2H-pyran-4-yl)amino)-N-((4-methoxy-6-methyl-2-oxo-1,2-dihydropyridin-3-yl)methyl)-2-(1-methylpiperidin-4-yl)benzofuran-4-carboxamide] | 9 | 9.9
14 | CCN(c1cc2occc2c(C(=O)NCc2c(OC)cc(C)[nH]c2=O)c1Cl)C1CCOCC1 [Example 22, 5-Chloro-6-(ethyl(tetrahydro-2H-pyran-4-yl)amino)-N-((4-methoxy-6-methyl-2-oxo-1,2-dihydropyridin-3-yl)methyl)benzofuran-4-carboxamide] | – | 6.5
15 | CCc1c(N(CC)C2CCOCC2)cc2oc(F)cc2c1C(=O)NCc1c(OC)cc(C)[nH]c1=O [Example 27, 5-Ethyl-6-(ethyl(tetrahydro-2H-pyran-4-yl)amino)-2-fluoro-N-((4-methoxy-6-methyl-2-oxo-1,2-dihydropyridin-3-yl)methyl)benzofuran-4-carboxamide] | 4 | 3.5
16 | CCc1c(N(CC2CC2)C2CCOCC2)cc2oc(C3CC3)cc2c1C(=O)NCc1c(OC)cc(C)[nH]c1=O [Example 28, 2-Cyclopropyl-6-((cyclopropylmethyl)(tetrahydro-2H-pyran-4-yl)amino)-5-ethyl-N-((4-methoxy-6-methyl-2-oxo-1,2-dihydropyridin-3-yl)methyl)benzofuran-4-carboxamide] | 78 | 6.8
17 | CCN(c1cc2oc(C(F)(F)F)cc2c(C(=O)NCc2c(OC)cc(C)[nH]c2=O)c1C)C1CCOCC1 [Example 29, 6-(Ethyl(tetrahydro-2H-pyran-4-yl)amino)-N-((4-methoxy-6-methyl-2-oxo-1,2-dihydropyridin-3-yl)methyl)-5-methyl-2-(trifluoromethyl)benzofuran-4-carboxamide] | 17 | 2.7
18 | CCc1c(N(CC2CC2)C2CCN(CC(F)(F)F)CC2)cc2occc2c1C(=O)NCc1c(OC)cc(C)[nH]c1=O [Example 34, 6-((Cyclopropylmethyl)(1-(2,2,2-trifluoroethyl)piperidin-4-yl)amino)-5-ethyl-N-((4-methoxy-6-methyl-2-oxo-1,2-dihydropyridin-3-yl)methyl)benzofuran-4-carboxamide] | – | 14
